Test results as given in US20240182445A1 (ONO PHARMACEUTICAL CO., LTD., priority 2019, published 2024).

Tests used:
human TREK-1 [1] = biological target: T1, human TREK-1 (Homo sapiens, UniProt O95069); assay: TREK-1 Thallium flux assay, Method 2; type: cell-based; details: measured by Method 2 of TREK1 Thalium flux assay (footnote *12); read-out: Tl+ Assay IC50
T1 construct: expressed in transfected cells
T1 sequence (O95069 1-426): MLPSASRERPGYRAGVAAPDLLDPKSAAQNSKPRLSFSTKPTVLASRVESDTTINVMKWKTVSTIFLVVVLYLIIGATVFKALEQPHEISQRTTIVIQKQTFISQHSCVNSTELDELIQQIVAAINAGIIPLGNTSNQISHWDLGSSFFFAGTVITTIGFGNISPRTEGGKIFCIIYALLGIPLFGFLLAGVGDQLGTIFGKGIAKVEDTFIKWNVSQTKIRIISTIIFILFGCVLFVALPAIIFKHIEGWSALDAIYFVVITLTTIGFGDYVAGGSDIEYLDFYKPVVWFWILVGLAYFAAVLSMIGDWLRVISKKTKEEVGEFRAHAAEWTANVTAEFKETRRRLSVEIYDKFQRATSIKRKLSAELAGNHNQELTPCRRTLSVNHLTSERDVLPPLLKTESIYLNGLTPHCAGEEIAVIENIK
Experimental: CHO-K1 cells stably expressing human TREK-1 were plated in 384-well plates on the day of assay, loaded with Thallos dye. Test compounds or control compound (tert-butyl (3-((4-(benzyloxy)-2-methylphenyl)carbamoyl)-4-chlorophenyl)carbamate) or 0.3% DMSO (vehicle control) were added directly to the cell plates and incubated for 10 min, and then treated with thallium stimulus buffer to initiate thallium flux. To measure the efficacy and potency of test compounds, the change in fluorescence intensity (ΔRatio) and % inhibition were calculated using the following equations:
ΔRatio=(fluorescence intensity at 25 seconds after thallium addition)/(average of fluorescent intensity before thallium addition)

human TREK-1 [2] = biological target: T1, human TREK-1; assay: TREK-1 Manual Patch Clamp (hMPC) assay; type: cell-based; details: CHO-K1 cells stably expressing human TREK-1; whole-cell current at 0 mV
Experimental: The term “patch clamp technique” herein refers to the “gold standard” technique for evaluating TREK channel pharmacology. The detail method is described below.
CHO-K1 cells stably expressing human TREK-1 or HEK293 cells stably expressing human TREK-2 are plated on glass coverslips, and voltage clamped in the whole-cell configuration of the patch clamp technique. Cells were voltage clamped at a holding potential of −80 mV and the stepped to 0 mV for 500 msec. The voltage was subsequently ramped from −120 mV to +80 mV over a 500 msec duration. This step-ramp protocol was repeated every 10 sec. The bathing solution contained the following: 135 mM NaCl, 5 mM KCl, 2 mM CaCl2, 1 mM MgCl2, 5 mM D-Glucose, 10 mM HEPES, 10 mM sucrose (adjusted to pH 7.4 with NaOH, 300 mosmol/kg H2O). The pipette solution contained the following: 135 mM KCl, 2 mM MgCl2, 1 mM EGTA, 10 mM HEPES, 2 mM Na2ATP (adjusted to pH 7.35 with KOH, 285 mosmol/kg H2O). Test compounds were dissolved into the bathing solution. Experiments on TREK-2 were terminated with the addition of the control compound (tert-butyl (3-((4-(benzyloxy)-2-methylphenyl)carbamoyl)-4-chlorophenyl)carbamate) so that maximal inhibition could be determined. The effects of test compound on the currents were calculated at 0 mV using the following equations:
For CHO cells expressing TREK-1 channel: % inhibition=(1-post current/pre current)×100
The compounds shown in Table 2 were prepared in an analogous manner with the appropriate starting materials, and evaluated in our TREK-1 Manual Patch Clamp (hMPC) assay.

IC50 (human TREK-1 [1]) [nM]	IC50 (human TREK-1 [2]) [nM]	Structure (SMILES)
130	100	Cc1cc(C#Cc2ccccc2)cnc1NC(=O)c1c(Cl)cnn1[C@H]1CCN(C(=O)C2CC2)C1 [Compound 454, 4-chloro-1-[(3S)-1-(cyclopropanecarbonyl)pyrrolidin-3-yl]-N-[3-methyl-5-(phenylethynyl)pyridin-2-yl]-1H-pyrazole-5-carboxamide]
37	–	Cc1cc(C#Cc2ccccc2)cnc1NC(=O)c1c(Cl)cnn1[C@H]1CCn2nccc2C1 (single isomer, unassigned) [Compound 457, 4-chloro-N-[3-methyl-5-(phenylethynyl)pyridin-2-yl]-1-[(5S)-4,5,6,7-tetrahydropyrazolo[1,5-a]pyridin-5-yl]-1H-pyrazole-5-carboxamide or 4-chloro-N-[3-methyl-5-(phenylethynyl)pyridin-2-yl]-1-[(5R)-4,5,6,7-tetrahydropyrazolo[1,5-a]pyridin-5-yl]-1H-pyrazole-5-carboxamide]
140	–	Cc1cc(C#Cc2ccccc2)cnc1NC(=O)c1c(Cl)cnn1[C@@H]1CCN(C(=O)C2CC2)C1 [Compound 455, 4-chloro-1-[(3R)-1-(cyclopropanecarbonyl)pyrrolidin-3-yl]-N-[3-methyl-5-(phenylethynyl)pyridin-2-yl]-1H-pyrazole-5-carboxamide]
120	–	Cc1cc(C#Cc2ccccc2)cnc1NC(=O)c1c(Cl)cnn1[C@H]1CCn2nccc2C1 (single isomer, unassigned) [Compound 456, 4-chloro-N-[3-methyl-5-(phenylethynyl)pyridin-2-yl]-1-[(5S)-4,5,6,7-tetrahydropyrazolo[1,5-a]pyridin-5-yl]-1H-pyrazole-5-carboxamide or 4-chloro-N-[3-methyl-5-(phenylethynyl)pyridin-2-yl]-1-[(5R)-4,5,6,7-tetrahydropyrazolo[1,5-a]pyridin-5-yl]-1H-pyrazole-5-carboxamide]
